Consider 15 compounds from ChEMBL document CHEMBL4359920 (Eur J Med Chem, 2019).

Data set [1] has as its target T1, Protein deacetylase HDAC6 (Homo sapiens, UniProt Q9UBN7).
T1 sequence (Q9UBN7 whole entry): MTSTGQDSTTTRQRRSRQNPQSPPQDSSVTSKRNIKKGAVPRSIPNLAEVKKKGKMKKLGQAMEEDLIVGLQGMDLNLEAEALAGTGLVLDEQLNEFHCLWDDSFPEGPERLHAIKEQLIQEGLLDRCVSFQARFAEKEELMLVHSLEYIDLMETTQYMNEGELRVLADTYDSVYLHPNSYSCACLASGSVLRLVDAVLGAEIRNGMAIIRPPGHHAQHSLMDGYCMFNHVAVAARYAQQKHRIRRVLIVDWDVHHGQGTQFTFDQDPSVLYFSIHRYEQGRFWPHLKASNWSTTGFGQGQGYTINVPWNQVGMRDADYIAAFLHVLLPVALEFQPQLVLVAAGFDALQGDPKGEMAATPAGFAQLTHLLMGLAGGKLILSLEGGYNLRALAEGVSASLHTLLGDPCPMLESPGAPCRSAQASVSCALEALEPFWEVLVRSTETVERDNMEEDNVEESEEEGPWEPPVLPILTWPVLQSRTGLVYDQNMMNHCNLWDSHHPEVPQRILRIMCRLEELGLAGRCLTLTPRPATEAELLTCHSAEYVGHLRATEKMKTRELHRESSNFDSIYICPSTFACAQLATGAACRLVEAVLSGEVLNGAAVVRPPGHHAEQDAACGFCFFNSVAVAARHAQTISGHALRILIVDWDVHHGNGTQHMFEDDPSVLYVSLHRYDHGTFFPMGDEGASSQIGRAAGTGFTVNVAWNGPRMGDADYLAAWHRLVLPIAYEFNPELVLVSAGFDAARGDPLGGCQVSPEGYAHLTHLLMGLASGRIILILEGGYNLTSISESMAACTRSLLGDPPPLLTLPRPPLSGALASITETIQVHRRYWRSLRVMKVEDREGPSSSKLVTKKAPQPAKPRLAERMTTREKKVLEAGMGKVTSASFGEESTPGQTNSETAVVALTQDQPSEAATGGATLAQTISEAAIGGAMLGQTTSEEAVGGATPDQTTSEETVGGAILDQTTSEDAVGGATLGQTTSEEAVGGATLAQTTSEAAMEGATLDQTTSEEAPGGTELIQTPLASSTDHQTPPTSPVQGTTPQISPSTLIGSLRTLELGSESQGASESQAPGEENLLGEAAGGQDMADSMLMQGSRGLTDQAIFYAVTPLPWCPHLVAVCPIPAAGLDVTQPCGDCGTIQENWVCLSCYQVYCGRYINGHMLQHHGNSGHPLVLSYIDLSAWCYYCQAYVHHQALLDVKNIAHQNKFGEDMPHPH
The data set is described as follows: Inhibition of recombinant human HDAC6 using Ac-peptide-AMC as substrate preincubated for 15 mins followed by substrate addition and measured after 60 mins by fluorescence based assay. Particulars: for inhibition (INH): human, 1 h; call rule not given here.

Data set [2] deals with Histone deacetylase 3/Nuclear receptor corepressor 2 (HDAC3/NCoR2) (Homo sapiens, UniProt O15379). The experiment in a line: Inhibition of human recombinant full length C-terminal His-tagged HDAC3 (1 to 428 residues)/N-terminal GST-tagged NCOR2 (395 to 489 residues) expressed in baculovirus infected Sf9 cells using Ac-peptide-AMC as substrate preincubated for 15 mins followed by substrate addition and measured after 60 mins by fluorescence based assay.

A further data set addresses Histone deacetylase 1 (Homo sapiens, UniProt Q13547). The data set is described as follows: Inhibition of recombinant full length C-terminal FLAG/His-tagged human HDAC1 expressed in baculovirus infected Sf9 cells using Ac-peptide-AMC as substrate preincubated for 15 mins followed by substrate addition and measured after 60 mins by fluorescence based assay.
The next data set concerns the target T2, Histone deacetylase 8 (Homo sapiens, UniProt Q9BY41).
T2 sequence (Q9BY41 whole entry): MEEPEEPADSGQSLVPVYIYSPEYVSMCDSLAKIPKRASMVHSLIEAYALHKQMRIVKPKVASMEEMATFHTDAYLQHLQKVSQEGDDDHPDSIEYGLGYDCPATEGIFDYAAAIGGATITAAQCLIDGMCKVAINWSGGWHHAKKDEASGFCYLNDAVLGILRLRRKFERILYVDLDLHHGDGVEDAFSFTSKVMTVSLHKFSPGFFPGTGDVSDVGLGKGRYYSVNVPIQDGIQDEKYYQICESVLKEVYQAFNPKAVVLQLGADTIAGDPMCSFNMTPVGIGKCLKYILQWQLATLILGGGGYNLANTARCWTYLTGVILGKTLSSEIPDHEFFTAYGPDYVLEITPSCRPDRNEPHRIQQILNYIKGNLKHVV
The data set is described as follows: Inhibition of full length C-terminal His-tagged human HDAC8 expressed in baculovirus infected Sf9 cells using Ac-peptide-AMC as substrate preincubated for 15 mins followed by substrate addition and measured after 240 mins by fluorescence based assay.

For the next data set, the target named is Histone deacetylase 2 (Homo sapiens, UniProt Q92769). The data set is described as follows: biochemical. Format: cell-based, Sf9.
The next data set relates to A549. The experiment in a line: Antiproliferative activity against human A549 cells assessed as reduction in cell viability after 72 hrs by MTT assay. Format: functional, cell-based. The note with it: A549, 72 h. (In general: Formazan colour is commonly taken as a measure of viable cells.)
The subject of a further data set is MDA-MB-231. The experiment in a line: Antiproliferative activity against human MDA-MB-231 cells assessed as reduction in cell viability after 72 hrs by MTT assay. Particulars: MDA-MB-231, 72 h. Format: functional, cell-based.
A further data set concerns SK-OV-3. The data set is described as follows: Antiproliferative activity against human SKOV3 cells assessed as reduction in cell viability after 72 hrs by MTT assay. The format is functional, cell-based. Particulars: SK-OV-3, 72 h.
The subject of a further data set is HCT-116. The experiment in a line: Antiproliferative activity against human HCT116 cells assessed as reduction in cell viability after 72 hrs by MTT assay. The format is functional, cell-based. Particulars: HCT-116, 72 h.
Data set [3] is filed under the species Homo sapiens. The experiment in a line: Selectivity ratio of IC50 for inhibition of recombinant full length human HDAC2 expressed in baculovirus infected Sf9 cells to IC50 for inhibition of recombinant full length C-terminal FLAG/His-tagged human HDAC1 expressed in baculovirus infected Sf9 cells.
Data set [4] is filed under the species Homo sapiens. The data set is described as follows: Selectivity ratio of IC50 for inhibition of human recombinant full length C-terminal His-tagged HDAC3 (1 to 428 residues)/N-terminal GST-tagged NCOR2 (395 to 489 residues) expressed in baculovirus infected Sf9 cells to IC50 for inhibition recombinant full length C-terminal FLAG/His-tagged human HDAC1 expressed in baculovirus infected Sf9 cells.

Data set [5] addresses T1, Protein deacetylase HDAC6. The experiment in a line: Inhibition of HDAC6 in human HCT116 cells assessed as alpha tubulin acetylation at 0.1 to 10000 nM after 24 hrs by Western blot analysis. Format: cell-based. Particulars: 10 µM.
The target of data set [6] is Histone deacetylase (Homo sapiens) (UniProt Q13547+O15379+Q9UBN7+Q92769+Q9UQL6+Q8WUI4+Q9BY41+Q96DB2+P56524+Q9UKV0+Q969S8). The experiment in a line: Inhibition of HDAC in human HCT116 cells assessed as increase in histone H3 acetylation after 24 hrs by Western blot analysis. The format is cell-based.

Histone deacetylase 1, sequence (Q13547 whole entry): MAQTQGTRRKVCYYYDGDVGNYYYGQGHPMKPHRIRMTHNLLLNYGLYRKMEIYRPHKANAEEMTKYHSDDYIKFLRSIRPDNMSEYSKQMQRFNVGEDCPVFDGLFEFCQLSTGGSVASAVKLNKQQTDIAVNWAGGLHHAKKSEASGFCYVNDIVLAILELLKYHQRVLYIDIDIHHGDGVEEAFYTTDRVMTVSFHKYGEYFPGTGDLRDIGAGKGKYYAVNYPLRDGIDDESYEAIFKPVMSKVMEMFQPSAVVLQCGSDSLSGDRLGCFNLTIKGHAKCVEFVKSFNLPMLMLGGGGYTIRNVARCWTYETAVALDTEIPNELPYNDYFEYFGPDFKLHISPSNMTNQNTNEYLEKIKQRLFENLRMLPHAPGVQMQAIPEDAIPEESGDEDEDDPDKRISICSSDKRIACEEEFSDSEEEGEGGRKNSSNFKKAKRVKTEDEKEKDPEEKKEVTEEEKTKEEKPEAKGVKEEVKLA
Histone deacetylase 3/Nuclear receptor corepressor 2 (HDAC3/NCoR2), sequence (O15379 whole entry, the tested form may be a part): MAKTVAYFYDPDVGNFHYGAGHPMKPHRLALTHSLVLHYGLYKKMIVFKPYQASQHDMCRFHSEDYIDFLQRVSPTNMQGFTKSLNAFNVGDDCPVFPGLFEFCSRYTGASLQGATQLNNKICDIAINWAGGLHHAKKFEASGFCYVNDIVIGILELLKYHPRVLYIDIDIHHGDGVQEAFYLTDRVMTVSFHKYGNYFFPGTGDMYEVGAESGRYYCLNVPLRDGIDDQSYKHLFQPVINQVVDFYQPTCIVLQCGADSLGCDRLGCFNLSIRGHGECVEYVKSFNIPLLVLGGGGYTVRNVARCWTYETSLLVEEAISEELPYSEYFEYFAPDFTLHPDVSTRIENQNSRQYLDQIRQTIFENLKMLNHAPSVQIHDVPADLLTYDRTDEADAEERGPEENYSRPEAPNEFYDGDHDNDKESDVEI
Histone deacetylase 3/Nuclear receptor corepressor 2 (HDAC3/NCoR2), sequence (Q9Y618 whole entry, further chain, the tested form may be a part): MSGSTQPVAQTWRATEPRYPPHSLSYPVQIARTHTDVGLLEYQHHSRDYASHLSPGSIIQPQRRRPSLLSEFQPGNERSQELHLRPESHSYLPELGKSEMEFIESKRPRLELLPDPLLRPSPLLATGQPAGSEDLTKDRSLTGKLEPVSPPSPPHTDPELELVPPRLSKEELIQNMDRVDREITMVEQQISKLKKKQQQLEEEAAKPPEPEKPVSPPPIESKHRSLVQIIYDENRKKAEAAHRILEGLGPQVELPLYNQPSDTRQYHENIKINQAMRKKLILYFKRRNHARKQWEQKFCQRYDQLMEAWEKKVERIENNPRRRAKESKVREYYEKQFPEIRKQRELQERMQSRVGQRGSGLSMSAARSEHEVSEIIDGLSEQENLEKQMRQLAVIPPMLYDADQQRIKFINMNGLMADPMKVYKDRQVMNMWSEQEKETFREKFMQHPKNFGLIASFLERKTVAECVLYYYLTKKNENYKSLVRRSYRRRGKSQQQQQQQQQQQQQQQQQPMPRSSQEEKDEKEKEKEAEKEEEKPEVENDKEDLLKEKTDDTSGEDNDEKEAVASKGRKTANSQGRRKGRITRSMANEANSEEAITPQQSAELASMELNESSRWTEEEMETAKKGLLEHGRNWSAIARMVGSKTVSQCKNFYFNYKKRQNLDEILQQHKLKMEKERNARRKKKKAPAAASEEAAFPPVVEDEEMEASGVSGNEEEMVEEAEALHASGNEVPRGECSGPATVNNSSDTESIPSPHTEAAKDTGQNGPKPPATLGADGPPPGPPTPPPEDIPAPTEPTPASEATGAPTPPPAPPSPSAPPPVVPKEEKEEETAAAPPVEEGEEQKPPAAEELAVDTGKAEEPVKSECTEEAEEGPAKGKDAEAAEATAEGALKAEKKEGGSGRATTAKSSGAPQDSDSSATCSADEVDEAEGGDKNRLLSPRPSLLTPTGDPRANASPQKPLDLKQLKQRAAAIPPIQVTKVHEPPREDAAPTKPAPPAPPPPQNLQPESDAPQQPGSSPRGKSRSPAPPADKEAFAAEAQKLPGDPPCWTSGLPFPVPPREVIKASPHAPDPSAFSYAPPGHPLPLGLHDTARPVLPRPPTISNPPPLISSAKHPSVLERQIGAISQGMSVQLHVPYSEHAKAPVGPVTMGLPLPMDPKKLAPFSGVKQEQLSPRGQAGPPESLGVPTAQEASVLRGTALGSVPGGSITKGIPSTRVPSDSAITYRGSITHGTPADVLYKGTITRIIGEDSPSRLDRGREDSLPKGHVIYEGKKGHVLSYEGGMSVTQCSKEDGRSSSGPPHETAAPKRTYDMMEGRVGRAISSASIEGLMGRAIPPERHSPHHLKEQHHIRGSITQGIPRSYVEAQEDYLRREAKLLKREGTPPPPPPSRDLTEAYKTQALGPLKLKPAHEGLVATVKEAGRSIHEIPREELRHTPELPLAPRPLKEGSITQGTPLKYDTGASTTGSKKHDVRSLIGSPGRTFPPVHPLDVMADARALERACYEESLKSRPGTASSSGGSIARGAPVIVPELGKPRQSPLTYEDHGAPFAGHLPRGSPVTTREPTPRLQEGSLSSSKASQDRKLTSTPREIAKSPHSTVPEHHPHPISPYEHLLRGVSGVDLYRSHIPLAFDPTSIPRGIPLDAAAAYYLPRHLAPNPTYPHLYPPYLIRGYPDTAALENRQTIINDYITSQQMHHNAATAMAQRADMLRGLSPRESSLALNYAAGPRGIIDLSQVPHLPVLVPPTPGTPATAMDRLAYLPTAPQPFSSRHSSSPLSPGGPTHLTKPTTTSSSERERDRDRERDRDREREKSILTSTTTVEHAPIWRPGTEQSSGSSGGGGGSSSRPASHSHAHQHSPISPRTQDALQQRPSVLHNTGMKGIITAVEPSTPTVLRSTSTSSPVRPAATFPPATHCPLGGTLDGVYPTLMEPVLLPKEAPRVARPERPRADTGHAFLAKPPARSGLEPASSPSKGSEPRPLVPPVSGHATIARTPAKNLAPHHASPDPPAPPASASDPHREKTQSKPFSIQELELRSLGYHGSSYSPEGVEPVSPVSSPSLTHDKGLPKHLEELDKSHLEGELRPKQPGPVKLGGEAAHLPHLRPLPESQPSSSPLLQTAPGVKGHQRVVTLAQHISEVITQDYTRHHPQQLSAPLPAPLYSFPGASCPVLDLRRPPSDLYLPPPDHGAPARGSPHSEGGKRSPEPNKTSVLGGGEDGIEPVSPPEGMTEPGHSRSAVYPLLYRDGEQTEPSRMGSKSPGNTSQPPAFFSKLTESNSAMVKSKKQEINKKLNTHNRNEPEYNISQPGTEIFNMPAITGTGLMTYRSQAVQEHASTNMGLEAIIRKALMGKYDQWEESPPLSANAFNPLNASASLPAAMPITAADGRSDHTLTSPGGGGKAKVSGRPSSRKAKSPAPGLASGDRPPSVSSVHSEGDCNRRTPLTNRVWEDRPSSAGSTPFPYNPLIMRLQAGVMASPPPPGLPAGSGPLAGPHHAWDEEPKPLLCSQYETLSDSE
Histone deacetylase 2, sequence (Q92769 whole entry): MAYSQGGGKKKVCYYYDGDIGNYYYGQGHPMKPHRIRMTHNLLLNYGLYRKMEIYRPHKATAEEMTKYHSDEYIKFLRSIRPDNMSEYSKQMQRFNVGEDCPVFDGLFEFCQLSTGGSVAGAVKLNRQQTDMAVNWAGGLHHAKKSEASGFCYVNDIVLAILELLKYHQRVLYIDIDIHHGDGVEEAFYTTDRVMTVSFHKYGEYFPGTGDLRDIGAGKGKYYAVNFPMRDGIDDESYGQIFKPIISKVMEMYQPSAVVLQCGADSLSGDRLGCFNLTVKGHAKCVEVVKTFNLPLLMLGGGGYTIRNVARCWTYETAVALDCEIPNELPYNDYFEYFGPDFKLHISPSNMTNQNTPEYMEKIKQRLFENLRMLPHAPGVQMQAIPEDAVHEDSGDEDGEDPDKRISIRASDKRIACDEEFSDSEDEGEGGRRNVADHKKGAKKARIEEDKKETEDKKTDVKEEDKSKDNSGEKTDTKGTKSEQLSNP
Description for Histone deacetylase 2: Inhibition of recombinant full length human HDAC2 expressed in baculovirus infected Sf9 cells using Ac-peptide-AMC as substrate preincubated for 15 mins followed by substrate addition and measured after 60 mins by fluorescence based assay

Regarding `CC(C)[C@@H]1NC(=O)[C@]2(C)CSC(=N2)c2csc(n2)CNC(=O)C(F)(F)[C@@H](/C=C/CCS)NC1=O`, the IC50 (usually the concentration that gives 50% inhibition) in [1] came out at 1410 nM; in data set [2], 7.43 nM; at Histone deacetylase 1, 6.31 nM; at Histone deacetylase 8, 166 nM; on Histone deacetylase 2 it was 9.25 nM. In addition, the “inhibition (INH)” value in data set [1] is on record as “Dose-dependent effect”.
For `CC(C)[C@@H]1NC(=O)[C@]2(C)CSC(=N2)c2csc(n2)CNC(=O)C[C@@H](/C=C/CCS)OC1=O`, the “inhibition (INH)” value in [1] is recorded as “Dose-dependent effect”.
`CC(C)[C@@H]1NC(=O)[C@]2(C)CSC(=N2)c2csc(n2)CNC(=O)C[C@@H](/C=C(\F)CCS)OC1=O`: the IC50 came to 19.7 nM in data set [1]; 3.2 nM in data set [2]; 0.46 nM on Histone deacetylase 1; 0.41 nM on Histone deacetylase 8; 2.46 nM against Histone deacetylase 2. Further, the “inhibition (INH)” value in data set [1] was “Dose-dependent effect”.
Consider `CCCCCCCC(=O)SCC/C=C/[C@@H]1CC(=O)NCc2nc(cs2)C2=N[C@@](C)(CS2)C(=O)N[C@@H](C(C)C)C(=O)O1` [LARGAZOLE], for which the IC50 in the data set on A549 is 460 nM; with MDA-MB-231, 4750 nM; in the data set with SK-OV-3, 250 nM; in the data set on HCT-116, 44 to 110 nM. Further, the “inhibition (INH)” value in [1] is “Dose-dependent effect”.
Take `CCCCCCCC(=O)SCC(F)(F)/C=C/[C@@H]1CC(=O)NCc2nc(cs2)C2=N[C@@](C)(CS2)C(=O)N[C@@H](C(C)C)C(=O)O1`: the IC50 in the data set with A549, in the data set with MDA-MB-231, with SK-OV-3 and with HCT-116 was above 10000 nM in each case.
Regarding `CCCCCCCC(=O)SCC/C=C/[C@H]1NC(=O)[C@H](C(C)C)NC(=O)[C@]2(C)CSC(=N2)c2csc(n2)CNC(=O)C1(F)F`, the IC50 with A549, in the data set on MDA-MB-231, in the data set with SK-OV-3 and with HCT-116 was above 10000 nM each time.
For `CC(C)[C@@H]1NC(=O)[C@]2(C)CSC(=N2)c2csc(n2)CNC(=O)C[C@@H](/C(F)=C/CCS)NC1=O`, the IC50 was determined as 333 nM in [1]; 8.53 nM in data set [2]; 2.9 nM on Histone deacetylase 1; 27.1 nM on Histone deacetylase 8; 7.42 nM on Histone deacetylase 2. For the same compound, in data set [1], the “inhibition (INH)” value is recorded as “Dose-dependent effect”.
For `CC(C)[C@@H]1NC(=O)[C@]2(C)CSC(=N2)c2csc(n2)CNC(=O)C[C@H](/C(F)=C/CCS)OC1=O`, the IC50 was determined as 1830 nM in data set [1]; 51.4 nM in data set [2]; 78.5 nM at Histone deacetylase 1; 378 nM at Histone deacetylase 8; 95.5 nM on Histone deacetylase 2. The “inhibition (INH)” value in data set [1] is given as “Dose-dependent effect”.
Turning to `CC(C)[C@@H]1NC(=O)[C@]2(C)CSC(=N2)c2csc(n2)CNC(=O)C[C@@H](/C=C/C(F)(F)CS)OC1=O`, the IC50 was 898 nM in [1]; 8.21 nM in data set [2]; 11.9 nM at Histone deacetylase 1; 44.1 nM at Histone deacetylase 8; 18.5 nM against Histone deacetylase 2. The “inhibition (INH)” value in [1] is listed as “Dose-dependent effect”. For the same compound, the Ratio IC50 in the data set listed under Homo sapiens [3] and in the data set listed under Homo sapiens [4] was 79 in each case.
Turning to `CCCCCCCC(=O)SCC/C(F)=C/[C@@H]1CC(=O)NCc2nc(cs2)C2=N[C@@](C)(CS2)C(=O)N[C@@H](C(C)C)C(=O)O1`, in data set [5], the “inhibition (INH)” value is reported as “Not Active”. In addition, the IC50 came out at 170 nM in the data set on A549, 4110 nM in the data set on MDA-MB-231, 260 nM with SK-OV-3 and 170 nM in the data set with HCT-116. Moreover, the inhibition result in data set [6] was “Dose-dependent effect”.
With `CCCCCCCC(=O)SCC/C=C(\F)[C@H]1CC(=O)NCc2nc(cs2)C2=N[C@@](C)(CS2)C(=O)N[C@@H](C(C)C)C(=O)O1`, the IC50 in the data set with A549, in the data set on MDA-MB-231, in the data set with SK-OV-3 and in the data set with HCT-116 was above 10000 nM throughout.
`CCCCCCCC(=O)SCC/C=C(\F)[C@@H]1CC(=O)NCc2nc(cs2)C2=N[C@@](C)(CS2)C(=O)N[C@@H](C(C)C)C(=O)N1`: the IC50 with A549 is above 10000 nM; with MDA-MB-231, above 10000 nM; with SK-OV-3 it was above 10000 nM; in the data set with HCT-116, 6620 nM.
With `CC(C)[C@@H]1NC(=O)[C@]2(C)CSC(=N2)c2csc(n2)CNC(=O)C[C@@H](/C(F)=C/CCS)OC1=O`, the “inhibition (INH)” value in data set [1] is listed as “Dose-dependent effect”.
Still for that read-out and setting: under `O=C(CCCCCCC(=O)Nc1ccccc1)NO` [VORINOSTAT] stands “Dose-dependent effect”.
`CCCCCCCC(=O)SCC/C=C(\F)[C@@H]1CC(=O)NCc2nc(cs2)C2=N[C@@](C)(CS2)C(=O)N[C@@H](C(C)C)C(=O)O1`: the IC50 is 520 nM with A549; above 5000 nM in data set [1]; 3850 nM with MDA-MB-231; 2300 nM in data set [2]; 240 nM in the data set on SK-OV-3; 810 nM in the data set with HCT-116. Further, the “inhibition (INH)” value in data set [1] was “Dose-dependent effect”.
